Source: publication PMC12010937, “Evaluation of FXR Activity in Pollutants Identified in Sewage Sludge and Subsequent in Vitro and in Vivo Characterization of Metabolic Effects of Triphenyl Phosphate” (Environmental Health Perspectives, 2025)
Values joined by “and” are separate entries in the source; they are usually repeats but may differ in a detail not shown here. Identical values can stand only once.

Columns and labels:
[1] = biological target: T1, human FXR-LBD (GST-FXR-LBD) (Homo sapiens, UniProt Q96RI1); assay: HTRF coactivator recruitment assay, agonist mode; type: biochemical
T1 construct: the human FXR-LBD (residues 234–472) was expressed as a GST fusion protein GST-FXR-LBD; made in house; host or cells: E. coli BL21(DE3)
T1 sequence (Q96RI1 234-472 isoform Q96RI1-2): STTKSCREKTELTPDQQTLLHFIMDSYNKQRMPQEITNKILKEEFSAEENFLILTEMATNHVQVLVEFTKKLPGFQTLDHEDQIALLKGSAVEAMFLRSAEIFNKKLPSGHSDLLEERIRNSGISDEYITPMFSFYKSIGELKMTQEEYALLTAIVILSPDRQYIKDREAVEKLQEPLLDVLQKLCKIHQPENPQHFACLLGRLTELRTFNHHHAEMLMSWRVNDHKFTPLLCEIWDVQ

[2] = biological target: T2, human FXR-LBD (6His-FXR-LBD) (Homo sapiens, UniProt Q96RI1); assay: Surface plasmon resonance (SPR) analysis; type: binding
T2 construct: human FXR (residues 243–472) was expressed and purified as an amino-terminal 6His fusion protein; made in house; host or cells: E. coli BL21(DE3)
T2 sequence (Q96RI1 243-472 isoform Q96RI1-2): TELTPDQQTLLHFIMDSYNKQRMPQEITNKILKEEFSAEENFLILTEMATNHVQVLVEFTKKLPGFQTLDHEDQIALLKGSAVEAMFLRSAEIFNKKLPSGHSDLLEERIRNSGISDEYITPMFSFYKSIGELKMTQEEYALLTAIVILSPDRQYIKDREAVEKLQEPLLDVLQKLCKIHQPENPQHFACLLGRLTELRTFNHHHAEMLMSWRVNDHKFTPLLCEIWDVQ
Protocol: . First, 40μg/mL purified 6His-FXR-LBD protein was immobilized on a CM5 sensor chip (29149603; Cytiva) by amine coupling reaction. In detail, the carboxymethyl dextran surface of the CM5 sensor chip was activated by injecting a 1:1 mixture of 0.4M 1-ethyl-3-(3-dimethylaminopropyl)-carbodiimide (EDC) and 0.1M N-hydroxysuccinimide (NHS) for 7 min, then the 6His-FXR-LBD protein was injected and immobilized on the activated surface for 5 min, and subsequently the excess activated groups on the surface were deactivated by 1.0M ethanolamine (pH 8.5). Then, seven different concentrations of compounds (including 3.125μM , 6.25μM , 12.5μM , 25μM , 50μM , 100μM , and 200μM ) were prepared with HBS-EP buffer [ 10 mM HEPES, 150 mM NaCl, 3 mM EDTA, 0.005% (v/v) surfactant P20, pH 7.4], and the final DMSO concentration was adjusted to 2%. The samples were injected into the chip at a flow rate of 30μL/min for 60 s, followed by dissociation for 120 s at 25°C. One of the flow cells on the chip without FXR-LBD protein was used as a negative control. The responses were recorded during the experiment, and the sensorgrams were obtained by subtracting the binding response of the negative control. The equilibrium dissociation constant (KD) was determined by steady-state fitting mode with Biacore T200 Evaluation Software (version 3.2; Cytiva).

[3] = system: FXR target genes (SHP, NTCP, CYP7A1) in HepG2 cells; assay: qPCR of FXR target genes in HepG2 cells; type: cell-based, human
C57BL/6N mice [4] = assay: Hepatic total bile acids (TBA colorimetric assay kit); type: in vivo; conditions: for Hepatic TBA: individual mice
Protocol: (§1) Male C57BL/6N mice (8 wk of age) were purchased from Beijing Vital River Laboratory Inc. and acclimated to the environment for 2 wk before they were used for experiments. The environment was maintained at 22°C, in a 12-h light/dark cycle with 50%–60% relative humidity and fed standard chow diets. Because the male mice are more sensitive to metabolic disease than female mice and the estrous cycle of female mice may induce variability to the metabolic phenotypes,[50] only male mice were used in this study. Animals were randomly assigned to control or TPHP treatment groups (five mice per group). Mice were exposed to corn oil (control) purchased from Sigma-Aldrich (C8267) or TPHP (dissolved in corn oil) at 10mg/kg or 50mg/kg body weight (BW) by daily oral gavage for 35 d. The administered volume was 5mL/kg BW. The TPHP corn oil solutions for administration were prepared by dissolving the TPHP in corn oil, and the solutions were stored at −20°C and freshly prepared each week. BW was measured every other day during the dosing period. At the end of experiments, the mice were anesthetized with isoflurane, then blood was collected from the retro-orbital sinus via orbital puncture, and then the mice were euthanized by cervical dislocation. The liver was isolated, weighted, and divided into three fractions: one fraction was fixed with 4% neutral-buffered formalin for Oil Red staining; another fraction was frozen in liquid nitrogen and stored at −80°C for the BA targeted analysis, lipidomic analysis, and qPCR analysis; the remaining fraction was embedded with 3% carboxymethylcellulose (CMC) for MSI analysis. The ileum was also isolated, weighted, and stored at −80°C for the BA targeted analysis and qRT-PCR analysis. […]
The TG level in the liver was determined using a triglyceride enzymatic assay kit (Applygen). […] The total BA level in the liver was determined using a Total Bile Acid (TBA) Colorimetric Assay Kit (Elabscience). […] Both the TG and TBA results were normalized by the protein concentration determined by bicinchoninic acid (BCA) method using a BCA kit (Applygen).

C57BL/6N mice [5] = assay: Oil Red O lipid staining of liver sections; type: in vivo; conditions: TPHP exposure groups
Protocol: as §1, with “dislocation.” for “dislocation. The liver was isolated, weighted, and divided into three fractions: one fraction was fixed with 4% neutral-buffered formalin for Oil Red staining; another fraction was frozen in liquid nitrogen and stored at −80°C for the BA targeted analysis, lipidomic analysis, and qPCR analysis; the remaining fraction was embedded with 3% carboxymethylcellulose (CMC) for MSI analysis. The ileum was also isolated, weighted, and stored at −80°C for the BA targeted analysis and qRT-PCR analysis.”

[6] = 10 μM TPHP + 50 μM CDCA, replicates

## O=P(Oc1ccccc1)(Oc1ccccc1)Oc1ccccc1 [TPHP, triphenyl phosphate]
[1]
  Relative activity, agonist mode: 0.00%
[2]; 3.13 μM TPHP
  Response (RU): 1.43 RU
[2]; 6.25 μM TPHP
  Response (RU): 1.99 RU
[2]; 12.5 μM TPHP
  Response (RU): 3.33 RU
[2]; 25 μM TPHP
  Response (RU): 6.18 RU
[2]; 50 μM TPHP
  Response (RU): 11.56 RU
[2]; 100 μM TPHP
  Response (RU): 20.62 RU
[2]; 200 μM TPHP
  Response (RU): 25.20 RU
[3]
  Effect on CDCA-induced expression changes of FXR target genes (SHP, NTCP, CYP7A1), in words: attenuated the CDCA-induced expression changes
[3]; [6]
  Relative mRNA expression level of CYP7A1: 1.85 fold changes and 1.10 fold changes and 1.48 fold changes
  Relative mRNA expression level of NTCP: 1.11 fold changes and 0.92 fold changes and 0.94 fold changes
  Relative mRNA expression level of SHP: 1.02 fold changes and 1.19 fold changes and 1.08 fold changes
C57BL/6N mice [4]; TPHP-H group, 35 d of exposure
  Increase of total BA concentration in the liver relative to the control group: 2 fold
C57BL/6N mice [4]; TPHP-H: 50 mg/kg daily oral gavage 35 d
  Hepatic TBA: 2.67 µmol/g and 2.92 µmol/g and 2.08 µmol/g
C57BL/6N mice [4]; TPHP-L: 10 mg/kg daily oral gavage 35 d
  Hepatic TBA: 1.89 µmol/g and 1.55 µmol/g and 1.58 µmol/g
C57BL/6N mice [5]
  Oil Red O staining intensity of liver sections vs control (in words): higher
